Source: US12691084B2, “Pharmaceutical composition for preventing or treating bone diseases” (INDUSTRY FOUNDATION OF CHONNAM NATIONAL UNIVERSITY, priority 2019, dated 2026)
“Also recorded” adds a separate entry of the source.

Columns and labels:
mouse bone marrow cells = assay: F-actin staining, actin-ring formation; format: cell-based; conditions: 6 uM, 4 to 5 days
Procedure: In order to determine the activity of differentiated osteoclasts, an ability to differentiate the cells into multinuclear cells was firstly confirmed through F-actin staining. Specifically, 5×10^4 mouse hone marrow cells per well were put into a 24-well plate in which glass coated with L-Lysine was placed (Corning, 354085). Simultaneously, the cells were treated with PSTP-3,5-Me 6 uM and cultured for 4 to 5 days. The differentiated cells were fixed with 4% formaldehyde for 10 minutes and washed with PBS. For the antigen-antibody reaction, a reaction was conducted in 0.1% Triton-PBS for 20 minutes, followed by reacting the same in 1% BSA for 1 hour. Thereafter, the F-actin antibody (Thermo Fisher Scientific, A12379) was reacted for 1 hour and than washed. Cell nuclei were stained through 4′,6-diamidino-2-phenylindole (DAPI, Dilactate, Thermo Fisher Scientific, D3571) staining, and then photographed under a microscope. As a result, it was confirmed by comparing shies of F-actin that PSTP-3,5-Me inhibited differentiation into multinuclear cells.

[1] = system: monocytes isolated from mouse bone marrow; assay: MTT assay for cytotoxicity evaluation (cell viability); format: cell-based; conditions: 3-10 μM; 4 days
Procedure: 1×10^4 monocytes isolated from mouse bone marrow per well were put into a 96-well plate, and in order to assess cell viability, the cells were cultured for 4 days while being treated with PSTP-3,5-Me at different concentrations (3-10 μM). A cell viability assay reagent (DoGen, EZ-3000) was used for treatment with 1/10 of the volume of the medium, and the cells were cultured at 37° C. for 30 minutes and confirmed at […]. […] In other words, it is understood that no cytotoxicity appeared.

ovariectomized mouse = assay: Ovariectomized (OVX) mouse osteoporosis model, tibia microcomputer tomography; format: in vivo
Procedure: In order to confirm in vivo efficacy of the PMSA compound, an ovariectomized animal model (OVX, ovariectomized mouse) with osteoporosis due to estrogen deficiency after ovariectomy in 8-week-old female mouse was prepared. #25 (PMSA-3-Ac, 25 mg/kg) or #25-D12 (PMSA-2-OMe-5-Cl, 20 mg/kg) were injected intraperitoneally once every two days to the ovariectomized mouse model. After 4 weeks, the tibia of the mouse was analyzed for bone density by microcomputer tomography.

[2] = 20 mg/kg intraperitoneally once every two days, 4 weeks, tibia, compared to control (OVX)

Row | Structure (SMILES) | differentiation into multinuclear cells (F-actin) (mouse bone marrow cells) | actin-ring formation (mouse bone marrow cells; compared to control) | cell viability [1] | bone density and bone volume (ovariectomized mouse; 20 mg/kg intraperitoneally once every two days, 4 weeks, compared to control (OVX)) | bone volume (BV) increase (ovariectomized mouse; [2]) [%] | cortical volume (Ct.V) increase (ovariectomized mouse; [2]) [%] | total bone volume (TV) increase (ovariectomized mouse; [2]) [%] | trabecular bone mineral density (Th. BMD) increase (ovariectomized mouse; [2]) [%] | trabecular volume (Th.V) increase (ovariectomized mouse; [2]) [times] | bone loss (ovariectomized mouse; OVX mouse model)
1 | Cc1cc(C)cc(N([C@@H](C)C(=O)Nc2ccccc2Sc2ccccc2)S(C)(=O)=O)c1 [#25-D5, N^2-(3,5-dimethylphenyl)-N^2-(methylsulfonyl)-N-[2-(phenylthio)phenyl]alanineamide] | inhibited | small-sized actin-ring structure | did not affect cell viability |  |  |  |  |  |  | 
2 | COc1ccc(Cl)cc1N(CC(=O)Nc1ccccc1Sc1ccccc1)S(C)(=O)=O [#25-D12, 2-(N-(5-chloro-2-methoxyphenyl)methylsulfonamido)-N-(2-(phenylthio)phenyl)acetamide] |  |  |  | higher | 6.9 | 5.4 | 5.4 | 42.3 | 2.7 | preventing bone loss in the trabecular bone portion; also recorded: effectively reduced bone loss
